Assay results taken from paper PMC5748433, “Study on the effect of EMD386088, a 5-HT6 receptor partial agonist, in enhancing the anti-immobility action of some antidepressants in rats” (Naunyn-Schmiedeberg's Archives of Pharmacology, 2017).
Values joined by “and” are separate entries in the source; they are usually repeats but may differ in a detail not shown here. Identical values can stand only once.

Columns and labels:
rats = assay: Open field (OF) test in rats, locomotor/exploratory activity; format: in vivo, rat; details: 2.5 mg/kg i.p. 30 min before test, 5-min session, mean ± SEM, 2.5 mg/kg
Procedure: All drugs were dissolved in distilled water immediately before administration in a volume of 2 mL/kg. All the compounds were administered intraperitoneally (i.p.). […] Control animals received vehicle according to the same schedule.
The experiment was performed using Motor Monitor System (Campden Instruments, Ltd., UK) consisted of two SmartFrame Open Field stations (40 × 40 × 38 cm) with 16 × 16 beams, located in sound attenuating chambers and connected to PC software by control chassis. Individual vehicle- or drug-injected animals were gently placed in the center of the station. An automated motor monitor system recorded ambulation (the number of crossings in X and Y axis), the number of rearing episodes, and total distance covered by a rat for 5 min.
The data of behavioral studies were evaluated using two-way analysis of variance (ANOVA) followed by Bonferroni’s post hoc test, p < 0.05 was considered significant.

opioid μ receptors = test system: opioid μ receptors; set-up: method as in Jastrzębska-Więsek et al. [2013]; details: ref Jastrzębska-Więsek et al. [2013]; cited from earlier work
GABAA = test system: GABAA; set-up: method as in Jastrzębska-Więsek et al. [2013]; details: ref Jastrzębska-Więsek et al. [2013]; cited from earlier work

## Cc1[nH]c2ccc(Cl)cc2c1C1=CCNCC1.Cl [EMD386088, 5-chloro-2-methyl-3-(1,2,3,6-tetrahydro-4-pyridinyl)-1H-indole hydrochloride]
rats
  Exploratory activity Ambulation X: 261 ± 29 and 262 ± 28 and 262 ± 35 and 263 ± 28
  Exploratory activity Ambulation Y: 261 ± 31 and 267 ± 37 and 262 ± 23
  Exploratory activity Rearings: 90 ± 3 and 91 ± 4 and 89 ± 4 and 92 ± 9
  Exploratory activity Total distance (cm): 2677 ± 232 cm and 2721 ± 196 cm and 2644 ± 220 cm and 2722 ± 145 cm
Opioid μ receptors
  affinity for opioid μ receptors: no affinity
GABAA
  affinity for GABAA: no affinity
